Reference: PMC13233288, “Spider venom peptides Ht1a and Gg1a are toxic to honeybee parasite Varroa destructor by topical application” (npj Drug Discovery, 2026)
Entries after “also recorded” stand apart in the source; their conditions may differ. No end group written: not given here.

Columns and labels:
V. destructor mites = experiment: Topical varroa assay of venom fractions / purified native peptides; format: in vivo, Varroa destructor; settings: native peptide / HPLC fraction; Ht1a three cohorts of 5 mites, Gg1a two cohorts of 5 mites
Protocol: An outline of the project discovery pipeline is presented in Supplementary Fig. 1. To identify varroacidal venom peptides, we screened venoms for activity against V. destructor by topical application. Topical tests were performed in several stages. First, whole venom was tested to determine mortality for V. destructor. Hit venoms were then subjected to several fractionation steps to isolate the active compounds. For the initial venom screen, a panel of 50 arthropod venoms (Table 1) were topically applied to V. destructor mites. Venoms were dissolved in 90% acetonitrile (v/v), and a 10 μg venom aliquot was applied per mite (n = 5 mites per venom). The dorsal plate of V. destructor mites (average mass 0.38 mg) was fixed to adhesive tape (ScotchTM 666 3 M; 19 × 32.9 mm, double sided) on microscope slides (ground edges 90° frosted end, 76 × 26 mm). A Nanoject II (Automatic Injector with Glass Capillaries, Drummond Cat.No. 3-000-205 A) was used for topical application of venom and control (90% acetonitrile) solutions. […] Mite mortality was determined at various time intervals up to 48 h after the treatment using an Olympus stereomicroscope (SZX10/SZX2 Series). […] The percentage of mite mortality for each venom was calculated at 2, 6 and 24 h, and adjusted by correcting for the mortality of the corresponding control group receiving only 90% acetonitrile. […]

VdNaV = experiment: Two-electrode voltage clamp, VdNaV expressed in Xenopus laevis oocytes; format: biochemical, V. destructor; settings: for varroa vs honeybee NaV channel potency: VdNaV compared with AmNaV, 500 nM
Text: To examine the activity of sHt1a against target and off-target arthropod voltage-gated sodium (NaV) channels, we used electrophysiological recordings of V. destructor (Vd) or A. mellifera (Am) NaV channels expressed in Xenopus laevis oocytes. The cDNA sequences of the VdNaV (in pGH19; kindly gifted by K. Dong[31]) and AmNaV channel (in pcDNA3.1; Genscript, USA) were confirmed by automated Sanger sequencing (Eurofins Genomics, Germany). RNA was synthesised using T7 polymerase (mMessage mMachine kit, Invitrogen, USA) after linearising the cDNA with an appropriate restriction enzyme (New England Biolabs, USA). NaV channel RNA was microinjected into defolliculated X. laevis oocytes (Nasco®, USA) which were then incubated for 2–3 days at 17 °C in Barth’s medium (in millimolar (mM): 96 NaCl, 2 KCl, 5 HEPES, 1 MgCl2, and 1.8 CaCl2 supplemented with 50 µg/mL gentamycin, pH 7.4 adjusted with NaOH (Sigma, USA)). The use of X. laevis complied with national and Flemish guidelines adhered to by the Ghent University Animal Care and Use Committee. Electrophysiological characteristics were studied using the two-electrode voltage-clamp technique (OC-725C; Warner Instruments, USA) with a 150-µL recording chamber as previously described. All data were filtered at 4 kHz (tunable active filter model 900, Frequency Devices Inc., USA) and digitised at 20 kHz using pClamp 10 software (Molecular Devices, USA). The external recording solution used was ND-100 (in mM: 100 NaCl, 5 HEPES, 1 MgCl2, and 1.8 CaCl2, pH 7.6 adjusted with NaOH; chemicals from Sigma, USA). Microelectrode (Narishige® PC-10 vertical puller) resistances were 0.5–1.0 MΩ when backfilled with 3 M KCl. All experiments were performed at room temperature (~22 °C).
For electrophysiological experiments, sHt1a dissolved at 50 µM in ND100 was added to the recording chamber containing ND100 to a final concentration of 500 nM. After current stabilisation, normalized conductance-voltage (G-V) and channel availability relationships were obtained by measuring steady-state currents upon stepwise depolarisation for 50 ms from a holding potential of –90 mV in 5 mV increments, followed by a 50 ms pulse at –20 mV. The data were fitted with a single Boltzmann function according to I/Imax (or G/Gmax) = [1+exp(-zF(V-V1/2)/RT)]^−1, where I/Imax is the normalised current amplitude, z is the equivalent charge, V1/2 is the half-activation voltage, F is Faraday’s constant, R is the gas constant, and T is the temperature in Kelvin. Off-line data analysis was performed using Clampfit 10 (Molecular Devices, USA), Excel (Microsoft Office) and Prism 10 (GraphPad). Tests for statistical differences included a student’s t-test for V1/2 values and a Kruskal–Wallis test for current inhibition, with p < 0.05 considered to be significant.

[1] = VdNav, 500 nM sHt1a, mean ± SEM, n = 5 oocytes

Substance: U1-macrothelitoxin-Gg1a
- topical varroacidal activity (V. destructor mites): topical varroacidal activity; also recorded: confirmed

Substance: KYCAPRKAVCNTPADCCDKSSRCAYPNYGLGYYLDSEFFGKRKICSWRL (also: bicyclic or more (positions not given here)) [Ht1a, μ-gradutoxin-Ht1a]
- topical varroacidal activity (V. destructor mites): contained the varroacidal activity; also recorded: confirmed
- reduction in peak VdNaV current (VdNaV; 500 nM sHt1a, ND-100 pH 7.6, ~22 °C, p = 0.0212 (Kruskal–Wallis)): 25.3 ± 7.8%
- varroa vs honeybee NaV channel potency (VdNaV): equal potency
- varroa vs honeybee NaV channel potency (VdNaV; listed as sHt1a): equally active
- change in half-maximal activation or inactivation values (VdNaV; VdNaV, 500 nM sHt1a, vs before treatment): without a significant change
- Activation Hill slope (VdNaV; [1]): 3.44 ± 0.55
- Activation V1/2 (VdNaV; [1]): –17.7 ± 0.7 mV
- Steady state inactivation Hill slope (VdNaV; [1]): –4.90 ± 1.29
- Steady state inactivation V1/2 (VdNaV; [1]): –40.8 ± 0.5 mV
- potency relative to other insect NaV channel targeting spider toxins (VdNaV; authors' comparison of 500 nM sHt1a data (VdNaV, AmNaV) with literature IC50/EC50): less potent than Tx4(6-1) (IC50 = 25 nM[33]) or Dc1a (EC50 = 65 nM[34]), but similarly potent to Aps III (IC50 = 540 nM[35]) and Jingzhaotoxin-I
